# PubChem BioAssay (NCI)
#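 Cultured in 96-well plates, cells were exposed to test compound for 48 hours across five concentrations. GI50: concentration for 50% inhibition of growth. TGI denotes the concentration required for complete inhibition of growth.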
# Columns and labels:
# Assay in all cases: inhibition of tumour cell growth, NCI panel, 48 h
# [1] = test system: 786-0 renal
# [2] = test system: A498 renal
# [3] = test system: A549 NSCLC
# [4] = test system: ACHN renal
# [5] = test system: BT-549 breast
# [6] = test system: CAKI-1 renal
# [7] = test system: CCRF-CEM leukemia
# [8] = test system: COLO 205 colon
# [9] = test system: DU-145 prostate
# [10] = test system: EKVX NSCLC
# [11] = test system: HCC-2998 colon
# [12] = test system: HCT-116 colon
# [13] = test system: HCT-15 colon
# [14] = test system: HL-60(TB) leukemia
# [15] = test system: HOP-62 NSCLC
# [16] = test system: HOP-92 NSCLC
# [17] = test system: HS 578T breast
# [18] = test system: HT29 colon
# [19] = test system: IGROV1 ovarian
# [20] = test system: K-562 leukemia
# [21] = test system: KM12 colon
# [22] = test system: LOX IMVI melanoma
# [23] = test system: M14 melanoma
# [24] = test system: MALME-3M melanoma
# [25] = test system: MCF7 breast
# [26] = test system: MDA-MB-231 breast
# [27] = test system: MDA-MB-435
# [28] = test system: MDA-MB-468 breast
# [29] = test system: MOLT-4 leukemia
# [30] = test system: NCI-H226 lung
# [31] = test system: NCI-H23 lung
# [32] = test system: NCI-H460 lung
# [33] = test system: NCI-H522 lung
# [34] = test system: NCI/ADR-RES ovarian
# [35] = test system: OVCAR-3 ovarian
# [36] = test system: OVCAR-4 ovarian
# [37] = test system: OVCAR-5 ovarian
# [38] = test system: OVCAR-8 ovarian
# [39] = test system: PC-3 prostate
# [40] = test system: RPMI-8226 leukemia
# [41] = test system: RXF 393 renal
# [42] = test system: SF-268 CNS
# [43] = test system: SF-295 CNS
# [44] = test system: SF-539 CNS
# [45] = test system: SK-MEL-2 melanoma
# [46] = test system: SK-MEL-28 melanoma
# [47] = test system: SK-MEL-5 melanoma
# [48] = test system: SK-OV-3 ovarian
# [49] = test system: SN12C renal
# [50] = test system: SNB-19 CNS
# [51] = test system: SNB-75 CNS
# [52] = test system: SR leukemia
# [53] = test system: SW-620 colon
# [54] = test system: TK-10 renal
# [55] = test system: U251 CNS
# [56] = test system: UACC-257 melanoma
# [57] = test system: UACC-62 melanoma
# [58] = test system: UO-31 renal
structure (smiles),measurement,setting,value
O=C(CNc1nc(-c2ccccc2)cs1)Nc1ccc(Br)cc1,GI50,[1],798 nM
same,TGI,[1],2100 nM
same,GI50,[2],3650 nM
same,TGI,[2],7990 nM
same,GI50,[3],1660 nM
same,TGI,[3],3560 nM
same,GI50,[4],844 nM
same,TGI,[4],2160 nM
same,GI50,[5],498 nM
same,TGI,[5],1680 nM
same,GI50,[6],917 nM
same,TGI,[6],2300 nM
same,GI50,[7],245 nM
same,TGI,[7],> 100000 nM
same,GI50,[8],1300 nM
same,TGI,[8],2840 nM
same,GI50,[9],1600 nM
same,TGI,[9],3050 nM
same,GI50,[10],1420 nM
same,TGI,[10],3030 nM
same,GI50,[11],1450 nM
same,TGI,[11],2770 nM
same,GI50,[12],507 nM
same,TGI,[12],1660 nM
same,GI50,[13],469 nM
same,TGI,[13],1160 nM
same,GI50,[14],1320 nM
same,TGI,[14],49200 nM
same,GI50,[15],1600 nM
same,TGI,[15],3170 nM
same,GI50,[16],1400 nM
same,TGI,[16],3100 nM
same,GI50,[17],2140 nM
same,TGI,[17],22300 nM
same,GI50,[18],752 nM
same,TGI,[18],2160 nM
same,GI50,[19],876 nM
same,TGI,[19],2430 nM
same,GI50,[20],309 nM
same,TGI,[20],> 100000 nM
same,GI50,[21],1790 nM
same,TGI,[21],5350 nM
same,GI50,[22],296 nM
same,TGI,[22],1290 nM
same,GI50,[23],875 nM
same,TGI,[23],2490 nM
same,GI50,[24],739 nM
same,TGI,[24],2090 nM
same,GI50,[25],625 nM
same,TGI,[25],1940 nM
same,GI50,[26],655 nM
same,TGI,[26],1970 nM
same,GI50,[27],1020 nM
same,TGI,[27],2790 nM
same,GI50,[28],532 nM
same,TGI,[28],1180 nM
same,GI50,[29],424 nM
same,GI50,[30],1120 nM
same,TGI,[30],3510 nM
same,GI50,[31],646 nM
same,TGI,[31],1890 nM
same,GI50,[32],1430 nM
same,TGI,[32],3420 nM
same,GI50,[33],168 nM
same,TGI,[33],339 nM
same,GI50,[34],557 nM
same,TGI,[34],3680 nM
same,GI50,[35],747 nM
same,TGI,[35],1930 nM
same,GI50,[36],1330 nM
same,TGI,[36],2980 nM
same,GI50,[37],1610 nM
same,TGI,[37],3020 nM
same,GI50,[38],1660 nM
same,TGI,[38],6070 nM
same,GI50,[39],1240 nM
same,TGI,[39],3620 nM
same,GI50,[40],396 nM
same,TGI,[40],1890 nM
same,GI50,[41],1150 nM
same,TGI,[41],2540 nM
same,GI50,[42],1720 nM
same,TGI,[42],7070 nM
same,GI50,[43],1480 nM
same,TGI,[43],4100 nM
same,GI50,[44],779 nM
same,TGI,[44],2020 nM
same,GI50,[45],1320 nM
same,TGI,[45],2700 nM
same,GI50,[46],1580 nM
same,TGI,[46],2970 nM
same,GI50,[47],707 nM
same,TGI,[47],1870 nM
same,GI50,[48],1940 nM
same,TGI,[48],4750 nM
same,GI50,[49],649 nM
same,TGI,[49],1990 nM
same,GI50,[50],1480 nM
same,TGI,[50],3080 nM
same,GI50,[51],1130 nM
same,TGI,[51],5940 nM
same,GI50,[52],470 nM
same,TGI,[52],> 100000 nM
same,GI50,[53],759 nM
same,TGI,[53],2300 nM
same,GI50,[54],1840 nM
same,TGI,[54],3270 nM
same,GI50,[55],525 nM
same,TGI,[55],1340 nM
same,GI50,[56],1410 nM
same,TGI,[56],3140 nM
same,GI50,[57],903 nM
same,TGI,[57],2320 nM
same,GI50,[58],1050 nM
same,TGI,[58],2330 nM
Clc1ccc2c(N/N=C/c3c[nH]c4ccc(Br)cc34)ccnc2c1,GI50,[1],1440 nM
same,TGI,[1],2880 nM
same,GI50,[2],1870 nM
same,TGI,[2],3380 nM
same,GI50,[3],1580 nM
same,TGI,[3],3060 nM
same,GI50,[4],1660 nM
same,TGI,[4],3040 nM
same,GI50,[5],1480 nM
same,TGI,[5],2840 nM
same,GI50,[6],1460 nM
same,TGI,[6],2800 nM
same,GI50,[8],358 nM
same,TGI,[8],1290 nM
same,GI50,[9],924 nM
same,TGI,[9],2140 nM
same,GI50,[10],1160 nM
same,TGI,[10],2400 nM
same,GI50,[11],762 nM
same,TGI,[11],2060 nM
same,GI50,[13],182 nM
same,TGI,[13],343 nM
same,GI50,[14],469 nM
same,TGI,[14],1920 nM
same,GI50,[15],1580 nM
same,TGI,[15],3100 nM
same,GI50,[16],1330 nM
same,TGI,[16],2740 nM
same,GI50,[19],1650 nM
same,TGI,[19],3080 nM
same,GI50,[21],1800 nM
same,TGI,[21],3340 nM
same,GI50,[22],173 nM
same,TGI,[22],330 nM
same,GI50,[24],1600 nM
same,TGI,[24],3010 nM
same,GI50,[25],952 nM
same,TGI,[25],2350 nM
same,GI50,[26],1240 nM
same,TGI,[26],2560 nM
same,GI50,[27],1690 nM
same,TGI,[27],3100 nM
same,GI50,[28],1240 nM
same,TGI,[28],2570 nM
same,GI50,[31],1110 nM
same,TGI,[31],2370 nM
same,GI50,[33],1790 nM
same,TGI,[33],3370 nM
same,GI50,[34],1410 nM
same,TGI,[34],2840 nM
same,GI50,[35],1660 nM
same,TGI,[35],3060 nM
same,GI50,[36],1770 nM
same,TGI,[36],3380 nM
same,GI50,[37],1530 nM
same,TGI,[37],2880 nM
same,GI50,[38],1800 nM
same,TGI,[38],3350 nM
same,GI50,[39],1310 nM
same,TGI,[39],2760 nM
same,GI50,[41],1420 nM
same,TGI,[41],2790 nM
same,GI50,[42],1700 nM
same,TGI,[42],3530 nM
same,GI50,[43],1610 nM
same,TGI,[43],2990 nM
same,GI50,[44],1660 nM
same,TGI,[44],3050 nM
same,GI50,[45],1790 nM
same,TGI,[45],3250 nM
same,GI50,[46],1590 nM
same,TGI,[46],2950 nM
same,GI50,[47],1500 nM
same,TGI,[47],2830 nM
same,GI50,[48],1570 nM
same,TGI,[48],3030 nM
same,GI50,[49],1750 nM
same,TGI,[49],3170 nM
same,GI50,[50],1540 nM
same,TGI,[50],2890 nM
same,GI50,[54],2270 nM
same,TGI,[54],3780 nM
same,GI50,[56],1580 nM
same,TGI,[56],2970 nM
same,GI50,[57],1660 nM
same,TGI,[57],3050 nM
same,GI50,[58],1440 nM
same,TGI,[58],2770 nM
